Assay results as given in patent publication US4794116A, “Anti-allergic esters, acetal ethers, thioethers and nitrogen substituted derivatives of bicyclic compounds” (Schering Corporation, priority 1986, dated 1988).

Assays:
[1] = tested on: anaphylactic bronchospasm; assay: inhibition of anaphylactic bronchospasm in sensitized guinea pigs having antigen induced broncho-constriction; assay type: in vivo, guinea pig (male Hartley); settings: for % Inhibition After 8 hr (peak increase in intratracheal pressure): 8 hours before ovalbumin challenge
Method: The anti-allergy method of this invention is identified by tests which measure a compound's inhibition of anaphylactic bronchospam in sensitized guinea pigs having antigen induced broncho-constriction.
In one such test procedure, male Hartley guinea pigs (250-300 g) are sensitized with 5 mg ovalbumin injected i.p. and 5 mg injected s.c. in 1 ml saline on day 1 and 5 mg ovalbumin injected i.p. on day 4. The sensitized animals are used 3-4 weeks later at which time they weigh 450-500 g.
The sensitized guinea pigs are fasted overnight and the following morning are anesthetized with 0.9 ml/kg i.p. of dialurethane (0.1 g/m diallybarbituric acid, 0.4 g/ml ethylurea and 0.4 g/ml urethane). The trachea are cannulated and the animals are ventilated by a Harvard rodent respirator at 50 strokes/minute with a stroke volume of 5 ml. A side arm to the tracheal cannula is connected to a Harvard pressure transducer to obtain a continuous measure of intratracheal pressure which is recorded on a Harvard polygraph. The jugular vein is cannulated for the i.v. administration of substances. The animals are challenged with antigen (0.5% ovalbumin) as an aerosol generated from a DeVilbiss Model 65 ultrasonic nebulizer and delivered through the tracheal cannula for 30 seconds. Bronchoconstriction is measured as the peak increase in intratracheal pressure occuring within 5 minutes after antigen challenge.
The sensitized guinea pigs are injected i.v. with 1 mg/kg propranolol, 5 mg/kg indomethacin and 2 mg/kg mepyramine given together in a volume of 1 ml/kg. Fifteen minutes later the animals are challenged with nebulized ovalbumin. Test compounds are administered orally 2 or 8 hours before challenge with ovalbumin. Suppression of anaphylactic bronchospasm is expressed as a percent inhibition of the peak increase in intratracheal pressure by comparison to a vehicle-treated control group.
*This measurement was made in a 21/2 day multipledosing regimen version o

[2] = tested on: paw edema; assay: Reversed Passive Arthus Response (RPAR) Paw; assay type: in vivo, rat (male Lewis); settings: oral dose of 25 mg/kg; for inhibited the paw edema at 2 hours: 2 hours post-challenge; for inhibited the paw edema at 4 hours: 4 hours post-challenge
Method: Reversed Passive Arthus Response (RPAR) PAW Animals, Materials and Methods
Male Lewis inbred albino rats weighing 180-200 grams obtained from Charles River Breeding Laboratories are used in these experiments. The rats are housed 3 animals/cage and food and water are allowed ad libitum. The animals are numbered 1-3 in each cage and color marked for identification purposes.
CL Drug and Reagent Preparation
All reagents and drugs are prepared just prior to the study. Crystallized and lyophilized bovine serum albumin (BSA), available from Sigma Chemical Company, is solubilized without shaking in cold, sterile, pyrogen-free saline (10 mg/ml). Lyophilized anti-bovine serum albumin (IgG fraction), obtained from Cappel Laboratories, is suspended in sterile distilled water and diluted with cold, pyrogen-free saline (PFS) just prior to use. The final concentration of anti-bovine serum albumin is 0.5 mg/ml of PFS. Both BSA and anti-BSA solutions are iced during use. Drugs are suspended or solubilized in an aqueous solution of methyl cellulose (MC) with an homogenizer just prior to administration.
Drug Administration and Induction of Inflammation
Groups of animals (6/group) are dosed with drug in MC by gavage once daily for 3 days. The last dose is administered one hour prior to sensitization with BSA. Controls are given MC alone and a drug-standard is usually included in each assay for verification purposes. Drugs are prepared and diluted so as to provide a dose for a 200 gram animal which is equivalent to the mg/kg dose for each experiment. Thus each rat receives an oral dose in a volume of approximately 2.0 cc. One hour after the last dose the animals are lightly anesthetized with ether and "sensitized" by injection of 0.2 ml of PFS containing 1.0 mg of BSA into the penile vein. One hour later, the animals are "challenged" in the right rear paw with subplantar injections of 0.2 ml of PFS containing 0.1 mg of anti-BSA. Immediately after the subplantar injection, the right paw is dipped (up to the lateral maleolus) into the mercury well of a plethysmograph. The volume of mercury displaced is converted to weight and recorded. This value is considered to be the control reading for the animal. Paw volumes are subsequently recorded with a plethysmograph during the development of the inflammation at 2 and 4 hours post-challenge.
Results are expressed by the change in paw volume (Δpaw volume) from the control reading for each animal to that recorded 2 and 4 hours post-challenge. All drug treated groups are compared to the MC control for significant differences with an analysis of variance. Differences from control in drug-treated groups are expressed as percent change from control. […]

[3] = 5 mg/kg p.o., 2 hours before ovalbumin challenge

Row | SMILES | % Inhibition After 2 hr (peak increase in intratracheal pressure) [1, 3] [%] | % Inhibition After 8 hr (peak increase in intratracheal pressure) ([1]; 5 mg/kg p.o.) [%] | % Inhibition After 2 hr (peak increase in intratracheal pressure) ([1]; 10 mg/kg p.o., 2 1/2 day multiple-dosing regimen version of the assay) [%] | inhibited the paw edema at 2 hours [2] [%] | inhibited the paw edema at 4 hours [2] [%]
1 | Cc1ccc(C(=O)Oc2c(N3CCCC3)c(=O)n(-c3ccccc3)c3ncccc23)cc1 [Example 1, 4-(4-methylbenzoyloxy)-1-phenyl-3(1-pyrrolidinyl)-1,8-naphthyridin-2(1H)-one] | 30 | 0 |  |  | 
2 | CC(=O)Oc1c(N2CCCC2)c(=O)n(-c2ccccc2)c2ncccc12 [Example 2, 4-acetyloxy-1-phenyl-3-(1-pyrrolidinyl)-1,8-naphthyridin-2(1H)-one] |  |  | 87 |  | 
3 | CC(C)(C)C(=O)Oc1c(N2CCCC2)c(=O)n(-c2ccccc2)c2ncccc12 [Example 3, 4-(2,2-dimethylpropionyloxy)-1-phenyl-3-(1-pyrrolidinyl)-1,8-naphthyridin-2(1H)-one] | 48 | 49 |  | 28 | 5
4 | CCN(CC)C(=O)Oc1c(N2CCCC2)c(=O)n(-c2ccccc2)c2ncccc12 [Example 4, 4-(N,N-diethylcarbamoyloxy)-1-phenyl-3-(1-pyrrolidinyl)-1,8-naphthyridin-2(1H)-one] | 48 | 32 |  | 54 | 17
